According to patent publication US11192889B2, “Tetrahydronaphthyridinepentanamide integrin antagonists” (The Rockefeller University, priority 2016, dated 2021):
“And” between values parts separate entries of the source, which are not always exact repeats. Equal entries are not always repeated.

Tests used:
HEK-293-αVβ3 cells [1] = molecular target: T1, HEK-293-αVβ3 cells (Homo sapiens, UniProt P05106+P06756); assay: AP5 Binding Assay; assay type: cell-based; conditions: for activation at 10 µM: relative to AP5 expression induced by cilengitide, read-out: AP5 expression induced at the highest concentration; for EC50: concentration inducing 50% of the AP5 expression induced by 1 μM cilengitide
T1 sequence (P05106 whole entry): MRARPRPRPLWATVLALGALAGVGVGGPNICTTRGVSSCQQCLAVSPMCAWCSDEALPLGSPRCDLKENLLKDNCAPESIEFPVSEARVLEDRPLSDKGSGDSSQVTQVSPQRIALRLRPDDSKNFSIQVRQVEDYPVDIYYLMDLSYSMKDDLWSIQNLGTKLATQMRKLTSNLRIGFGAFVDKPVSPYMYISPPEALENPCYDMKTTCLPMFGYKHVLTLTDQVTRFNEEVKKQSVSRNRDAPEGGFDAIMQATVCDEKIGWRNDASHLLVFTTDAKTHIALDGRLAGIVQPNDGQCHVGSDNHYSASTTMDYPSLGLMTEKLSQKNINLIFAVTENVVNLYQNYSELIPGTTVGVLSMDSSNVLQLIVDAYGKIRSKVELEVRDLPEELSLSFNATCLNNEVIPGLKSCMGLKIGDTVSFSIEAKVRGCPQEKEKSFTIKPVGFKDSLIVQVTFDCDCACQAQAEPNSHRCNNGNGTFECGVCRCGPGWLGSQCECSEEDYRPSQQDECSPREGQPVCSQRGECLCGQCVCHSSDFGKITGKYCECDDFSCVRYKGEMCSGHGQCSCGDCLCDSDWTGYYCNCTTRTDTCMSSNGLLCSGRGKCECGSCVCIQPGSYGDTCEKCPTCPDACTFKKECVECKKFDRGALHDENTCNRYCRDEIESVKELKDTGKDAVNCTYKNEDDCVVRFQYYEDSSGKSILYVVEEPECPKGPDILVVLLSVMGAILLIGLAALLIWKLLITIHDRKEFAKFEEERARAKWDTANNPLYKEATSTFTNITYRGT
T1 sequence (P06756 whole entry): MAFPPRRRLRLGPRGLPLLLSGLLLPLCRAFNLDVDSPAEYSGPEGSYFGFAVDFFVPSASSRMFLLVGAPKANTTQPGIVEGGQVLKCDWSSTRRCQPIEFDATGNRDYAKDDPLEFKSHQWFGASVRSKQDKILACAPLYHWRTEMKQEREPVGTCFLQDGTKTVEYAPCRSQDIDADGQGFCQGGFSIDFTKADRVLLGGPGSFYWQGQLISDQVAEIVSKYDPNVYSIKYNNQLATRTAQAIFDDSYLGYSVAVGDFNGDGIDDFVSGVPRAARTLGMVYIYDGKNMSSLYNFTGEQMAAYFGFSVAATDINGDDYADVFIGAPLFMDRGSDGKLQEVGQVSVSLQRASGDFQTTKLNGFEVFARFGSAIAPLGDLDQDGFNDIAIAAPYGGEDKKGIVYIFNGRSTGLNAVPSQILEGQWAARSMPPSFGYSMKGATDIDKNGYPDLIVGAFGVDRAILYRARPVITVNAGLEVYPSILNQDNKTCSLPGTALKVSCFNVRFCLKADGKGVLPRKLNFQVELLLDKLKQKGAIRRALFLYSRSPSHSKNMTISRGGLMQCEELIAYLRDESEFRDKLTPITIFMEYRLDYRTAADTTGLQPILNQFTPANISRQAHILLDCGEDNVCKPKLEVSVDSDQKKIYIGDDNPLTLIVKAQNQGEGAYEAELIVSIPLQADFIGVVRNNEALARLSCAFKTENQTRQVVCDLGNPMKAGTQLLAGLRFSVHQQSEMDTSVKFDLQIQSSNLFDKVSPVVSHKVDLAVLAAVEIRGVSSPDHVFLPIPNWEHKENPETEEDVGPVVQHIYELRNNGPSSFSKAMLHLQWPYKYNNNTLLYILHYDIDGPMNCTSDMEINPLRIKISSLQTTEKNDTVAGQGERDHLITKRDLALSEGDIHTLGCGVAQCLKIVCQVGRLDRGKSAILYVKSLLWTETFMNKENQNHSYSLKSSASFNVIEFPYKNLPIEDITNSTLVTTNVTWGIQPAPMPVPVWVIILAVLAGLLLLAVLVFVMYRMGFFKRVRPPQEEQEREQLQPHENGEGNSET
Description: (§1) HEK-293 Cells Expressing αVβ3. HEK-293 cells were transfected using lipofectamine 2000 (Invitrogen #11668030) with the cDNA for αV using the pEF1/V5-His A vector and the cDNA for β3 using the vector pcDNA3.1. Cells expressing αVβ3 were identified by their reaction with murine monoclonal antibodies (mAbs) LM609 and 7E3, and stable cell lines were established by repetitive sorting using LM609. […] HEK-293-αVβ3 cells for assays are counted in an automated cell counter (ADVIA 120) and adjusted to values appropriate for each assay.
AP5 Binding Assay. HEK-293-αVβ3 cells are harvested using 0.05% trypsin 0.5 mM EDTA, washed with HBMT once, and resuspended in HBMT containing 1 mM Mg2+ and 2 mM Ca2+. The cells are counted and adjusted to 0.5×10^6 cells per sample. The compound to be tested and fluorescently labeled mAb AP5 (either Alexa 488 or Alexa 674; 10 μg/mL) are added and incubated for 30 minutes at 37° C. The cells are then washed and analyzed by flow cytometry (BD FACSCalibur) at the appropriate wavelength for detecting the AP5 fluorophore. In each assay, cilengitide (1 μM) and 10 mM EDTA are included as positive controls and untreated cells are used as the negative control. The concentration of the test compound required to induce the expression of 50% of the AP5 expression induced by cilengitide is calculated and defined as the EC50. The EC50 for cilengitide was determined based on the expression induced by EDTA.

HEK-293-αVβ3 cells [2] = molecular target: T1, HEK-293-αVβ3 cells; assay: αVβ3 Cell Adhesion to Fibrinogen Assay; assay type: cell-based; set-up: IC50; other: dose reducing by 50% the adhesion of HEK-293-αVβ3 cells to fibrinogen; untreated cells 100% adhesion, 10 mM EDTA 0%; conditions: for IC50: dose reducing by 50% the adhesion of HEK-293-αVβ3 cells to fibrinogen, separate determinations listed
Description: as §1
αVβ3 Cell Adhesion to Fibrinogen Assay. Polystyrene 96-well microtiter plates (Costar, 3590) are precoated with 3.5 μg/mL of purified fibrinogen (Enzyme Research Laboratories) in 0.15 M NaCl, 0.01 M Tris/HCL, pH 7.4 for 1 hour at 37° C. The wells are then washed and incubated with HEPES-Buffered Modified Tyrode's solution (HBMT; 0.128 M NaCl, 10 mM HEPES, 12 mM NaHCO3, 0.4 mM NaH2PO4, 2.7 mM KCl, 0.35% bovine serum albumin (Fisher), 0.1% glucose, pH 7.4) for 1 hour at room temperature or overnight at 4° C. Wells are washed with HBMT containing 1 mM Mg2+ and 2 mM Ca2+ and then 50 μL of HEK-293-αVβ3 cells that have been pretreated with the compound to be tested for 20 minutes at room temperature are added to each well at a concentration of 3,000 cells/μL. After 30-32 minutes the wells are washed with HBMT containing Ca2+ and Mg2+ three times and then the adherent cells are lysed and the acid phosphatase activity that is released is measured by: 1. adding phosphatase substrate (Sigma EC 224-246-5) at 2 mg/mL in 0.1 M Na citrate, pH 5.6, 0.1% triton X-100 for 1 hour at room temperature; 2. stopping the reaction by adding 50 μL of 2 M NaOH; and 3. analyzing the samples in a spectrophotometer at 405 nm. In each assay, 10 mM EDTA is used as a positive control and untreated cells are used as a negative control. The IC50 is the dose of test compound that reduces by 50% the adhesion of the HEK-293-αVβ3 cells, taking the results with untreated cells as 100% and the results in the presence of EDTA as 0%. In some instances more than one IC50 determination was made, in which case, results of separate determinations are reported. IC50's were not determined for all compounds in the table; for some of these test compounds the inhibition at specific doses are reported. In some instances, the test compound produced a greater reduction than 10 mM EDTA, and these are shown as negative numbers.

Structure (SMILES)	activation at 10 µM (HEK-293-αVβ3 cells [1]) [%]	EC50 (HEK-293-αVβ3 cells [1]) [nM]	inhibition at specific dose 0.1 (HEK-293-αVβ3 cells [2]; dose 0.1 (table in μM), untreated cells 100% adhesion, 10 mM EDTA 0%) [%]	IC50 (HEK-293-αVβ3 cells [2])
O=C(CCCCc1ccc2c(n1)NCCC2)NCCC(NS(=O)(=O)c1cccnc1)C(=O)O (stereo not shown) [Example 44]	22	> 10000	40	1330 nM
CC1(C)[C@@H]2CC[C@]1(CS(=O)(=O)NC(CCNC(=O)CCCCc1ccc3c(n1)NCCC3)C(=O)O)C(=O)C2 (stereo partly shown) [Example 50]	16	> 10000	–	< 100 nM
COc1ccc(COC(=O)NC(CCNC(=O)CCCCc2ccc3c(n2)NCCC3)C(=O)O)cc1 (stereo not shown) [Example 60]	10	> 10000	–	579 nM
O=C(CCCCc1ccc2c(n1)NCCC2)NCCC(NC(=O)OCCc1ccccc1)C(=O)O (stereo not shown) [Example 61]	14	> 10000	–	586 nM
O=C(CCCCc1ccc2c(n1)NCCC2)NCCC(NC(=O)OCC(F)(F)C(F)(F)F)C(=O)O (stereo not shown) [Example 62]	12	> 10000	–	628 nM
COc1ccccc1COC(=O)NC(CCNC(=O)CCCCc1ccc2c(n1)NCCC2)C(=O)O (stereo not shown) [Example 63]	16	> 10000	–	491 nM
O=C(CCCCc1ccc2c(n1)NCCC2)NCCC(NC(=O)OCC1CCC(F)(F)CC1)C(=O)O (stereo not shown) [Example 64]	21	> 10000	–	248 nM and 359 nM
O=C(CCCCc1ccc2c(n1)NCCC2)NCCC(NC(=O)OCc1ccccc1F)C(=O)O (stereo not shown) [Example 65]	13	> 10000	–	120 nM
O=C(CCCCc1ccc2c(n1)NCCC2)NCCC(NC(=O)OCc1cccc(F)c1)C(=O)O (stereo not shown) [Example 66]	12	> 10000	–	533 nM
O=C(CCCCc1ccc2c(n1)NCCC2)NCCC(NC(=O)OCc1ccc(F)cc1)C(=O)O (stereo not shown) [Example 67]	13	> 10000	–	320 nM
O=C(CCCCc1ccc2c(n1)NCCC2)NCCC(NC(=O)OCc1ccc(F)c(F)c1)C(=O)O (stereo not shown) [Example 68]	9	> 10000	–	320 nM
O=C(CCCCc1ccc2c(n1)NCCC2)NCCC(Nc1nc2ccccc2o1)C(=O)O (stereo not shown) [Example 69, 2-(1,3-benzoxazol-2-ylamino)-4-[5-(5,6,7,8-tetrahydro-1,8-naphthyridin-2-yl)pentanoylamino]butanoic acid]	7	> 10000	–	211 nM
O=C(CCCCc1ccc2c(n1)NCCC2)NCCC(Nc1nc2ccccc2s1)C(=O)O (stereo not shown) [Example 70, 2-(1,3-Benzothiazol-2-ylamino)-4-[5-(5,6,7,8-tetrahydro-1,8-naphthyridin-2-yl)pentanoylamino]butanoic acid]	6	> 10000	–	525 nM
COc1cccc(C(=O)NC(CCNC(=O)CCCCc2ccc3c(n2)NCCC3)C(=O)O)n1 (stereo not shown) [Example 71, 2-[(6-methoxypyridine-2-carbonyl)amino]-4-[5-(5,6,7,8-tetrahydro-1,8-naphthyridin-2-yl)pentanoylamino]butanoic acid]	9	> 10000	–	1140 nM
O=C(CCCCc1ccc2c(n1)NCCC2)NCCC(NC(=O)c1ncc(-c2ccccc2)s1)C(=O)O (stereo not shown) [Example 72, 2-[(5-phenylthiazole-2-carbonyl)amino]-4-[5-(5,6,7,8-tetrahydro-1,8-naphthyridin-2-yl)pentanoylamino]butanoic acid]	6	> 10000	–	181 nM and 90.4 nM and 185 nM
O=C(CCCCc1ccc2c(n1)NCCC2)NCCC(NC(=O)c1nc2ccccc2n1CC1CC1)C(=O)O (stereo not shown) [Example 73, 2-[[1-(cyclopropylmethyl)benzimidazole-2-carbonyl]amino]-4-[5-(5,6,7,8-tetrahydro-1,8-naphthyridin-2-yl)pentanoylamino]butanoic acid]	2.5	> 10000	–	502 nM and 142 nM
O=C(CCCCc1ccc2c(n1)NCCC2)NCCC(NC(=O)c1nc2ccccc2o1)C(=O)O (stereo not shown) [Example 74, 2-(1,3-benzoxazole-2-carbonylamino)-4-[5-(5,6,7,8-tetrahydro-1,8-naphthyridin-2-yl)pentanoylamino]butanoic acid]	4	> 10000	–	115 nM
O=C(CCCCc1ccc2c(n1)NCCC2)NCCC(NC(=O)c1nc2ccccc2s1)C(=O)O (stereo not shown) [Example 75, 2-(1,3-benzothiazole-2-carbonylamino)-4-[5-(5,6,7,8-tetrahydro-1,8-naphthyridin-2-yl)pentanoylamino]butanoic acid]	9	> 10000	–	< 100 nM and 54.6 nM and 65.1 nM
O=C(CCCCc1ccc2c(n1)NCCC2)NCCC(C(=O)O)n1cc(-c2ccccc2)nn1 (stereo not shown) [Example 76, 2-(4-phenyltriazol-1-yl)-4-[5-(5,6,7,8-tetrahydro-1,8-naphthyridin-2-yl)pentanoylamino]butanoic acid]	9	> 10000	–	939 nM
CC(C)Cc1cn(C(CCNC(=O)CCCCc2ccc3c(n2)NCCC3)C(=O)O)nn1 (stereo not shown) [Example 77, 2-(4-isobutyltriazol-1-yl)-4-[5-(5,6,7,8-tetrahydro-1,8-naphthyridin-2-yl)pentanoylamino]butanoic acid]	8	> 10000	–	2020 nM
O=C(CCCCc1ccc2c(n1)NCCC2)NCCC(C(=O)O)n1cnc(-c2ccccc2)n1 (stereo not shown) [Example 78, 2-(3-phenyl-1,2,4-triazol-1-yl)-4-[5-(5,6,7,8-tetrahydro-1,8-naphthyridin-2-yl)pentanoylamino]butanoic acid]	10	> 10000	–	518 nM
COc1ccc(C(CCNC(=O)CCCCc2ccc3c(n2)NCCC3)C(=O)O)cn1 (stereo not shown) [Example 79, 2-(6-methoxy-3-pyridyl)-4-[5-(5,6,7,8-tetrahydro-1,8-naphthyridin-2-yl)pentanoylamino]butanoic acid]	19	> 10000	–	532 nM
O=C(CCCCc1ccc2c(n1)NCCC2)NCCC(C(=O)O)c1ccc(Oc2ccccc2)nc1 (stereo not shown) [Example 80, 2-(6-phenoxy-3-pyridyl)-4-[5-(5,6,7,8-tetrahydro-1,8-naphthyridin-2-yl)pentanoylamino]butanoic acid]	7.5	> 10000	–	1570 nM and 429 nM
O=C(CCCCc1ccc2c(n1)NCCC2)NCCC(Nc1ncc(-c2ccccc2)cn1)C(=O)O (stereo not shown) [Example 81, 2-[(5-phenylpyrimidin-2-yl)amino]-4-[5-(5,6,7,8-tetrahydro-1,8-naphthyridin-2-yl)pentanoylamino]butanoic acid]	9	> 10000	–	< 100 nM and 101 nM and 143 nM
O=C(CCCCc1nc2c(cc1C1CC1)CCCN2)NCCC(NC(=O)OCc1ccccc1)C(=O)O (stereo not shown) [Example 82, 2-(benzyloxycarbonyl-amino)-4-[5-(3-cyclopropyl-5,6,7,8-tetrahydro-1,8-naphthyridin-2-yl)pentanoyl-amino]butanoic acid]	12	> 10000	–	206 nM
